The source made the active and inactive calls. The rule behind the calls is not given here.
Tests used:
[1] = target: Telomerase reverse transcriptase (Homo sapiens, UniProt O14746); assay: Inhibition of telomerase activity in human HL-60 cells incubated for 96 hrs by TRAP-PCR assay; type: cell-based
CT26 = assay: cells; settings: Mus musculus, CT26, 96 h
Description: Antiproliferative activity against mouse CT26 cells assessed as inhibition of cell growth measured after 96 hrs by CCK-8 assay

HL-60 = assay: cells; settings: Homo sapiens, HL-60, 96 h
Description: Antiproliferative activity against human HL-60 cells assessed as inhibition of cell growth measured after 96 hrs by CCK-8 assay

[2] = Cytotoxicity against human GES1 cells assessed as inhibition of cell growth measured after 96 hrs by CCK-8 assay; type: toxicity, cell-based
[3] = target: Telomerase Cajal body protein 1 (Homo sapiens) (UniProt Q9BUR4); assay: Inhibition of hTERT binding to TCAB1 in human HL-60 cells at 10 uM incubated for 48 hrs by Co-IP analysis; type: cell-based
Chain of Telomerase Cajal body protein 1 (Homo sapiens) (Q9BUR4 whole entry): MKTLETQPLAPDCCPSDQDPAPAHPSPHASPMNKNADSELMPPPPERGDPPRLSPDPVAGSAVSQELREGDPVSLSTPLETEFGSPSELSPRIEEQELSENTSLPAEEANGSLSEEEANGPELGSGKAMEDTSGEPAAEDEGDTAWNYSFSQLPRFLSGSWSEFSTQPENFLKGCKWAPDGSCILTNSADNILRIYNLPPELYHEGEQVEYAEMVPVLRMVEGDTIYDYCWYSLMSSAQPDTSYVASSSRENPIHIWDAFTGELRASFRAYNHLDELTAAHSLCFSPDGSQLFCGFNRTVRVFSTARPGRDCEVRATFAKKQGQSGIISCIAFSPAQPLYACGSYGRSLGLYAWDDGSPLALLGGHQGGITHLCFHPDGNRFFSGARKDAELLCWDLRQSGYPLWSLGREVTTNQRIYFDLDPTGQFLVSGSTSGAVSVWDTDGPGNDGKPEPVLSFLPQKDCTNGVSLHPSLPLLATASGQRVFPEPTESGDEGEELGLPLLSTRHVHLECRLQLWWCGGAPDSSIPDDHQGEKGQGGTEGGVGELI

[4] = target: Telomerase Cajal body protein 1 (Homo sapiens) (UniProt Q9BUR4); assay: Thermal stabilization of TCAB1 in human HL-60 cells at 10 uM incubated for 30 mins by CETSA; type: cell-based

Chain of Telomerase reverse transcriptase (O14746 whole entry): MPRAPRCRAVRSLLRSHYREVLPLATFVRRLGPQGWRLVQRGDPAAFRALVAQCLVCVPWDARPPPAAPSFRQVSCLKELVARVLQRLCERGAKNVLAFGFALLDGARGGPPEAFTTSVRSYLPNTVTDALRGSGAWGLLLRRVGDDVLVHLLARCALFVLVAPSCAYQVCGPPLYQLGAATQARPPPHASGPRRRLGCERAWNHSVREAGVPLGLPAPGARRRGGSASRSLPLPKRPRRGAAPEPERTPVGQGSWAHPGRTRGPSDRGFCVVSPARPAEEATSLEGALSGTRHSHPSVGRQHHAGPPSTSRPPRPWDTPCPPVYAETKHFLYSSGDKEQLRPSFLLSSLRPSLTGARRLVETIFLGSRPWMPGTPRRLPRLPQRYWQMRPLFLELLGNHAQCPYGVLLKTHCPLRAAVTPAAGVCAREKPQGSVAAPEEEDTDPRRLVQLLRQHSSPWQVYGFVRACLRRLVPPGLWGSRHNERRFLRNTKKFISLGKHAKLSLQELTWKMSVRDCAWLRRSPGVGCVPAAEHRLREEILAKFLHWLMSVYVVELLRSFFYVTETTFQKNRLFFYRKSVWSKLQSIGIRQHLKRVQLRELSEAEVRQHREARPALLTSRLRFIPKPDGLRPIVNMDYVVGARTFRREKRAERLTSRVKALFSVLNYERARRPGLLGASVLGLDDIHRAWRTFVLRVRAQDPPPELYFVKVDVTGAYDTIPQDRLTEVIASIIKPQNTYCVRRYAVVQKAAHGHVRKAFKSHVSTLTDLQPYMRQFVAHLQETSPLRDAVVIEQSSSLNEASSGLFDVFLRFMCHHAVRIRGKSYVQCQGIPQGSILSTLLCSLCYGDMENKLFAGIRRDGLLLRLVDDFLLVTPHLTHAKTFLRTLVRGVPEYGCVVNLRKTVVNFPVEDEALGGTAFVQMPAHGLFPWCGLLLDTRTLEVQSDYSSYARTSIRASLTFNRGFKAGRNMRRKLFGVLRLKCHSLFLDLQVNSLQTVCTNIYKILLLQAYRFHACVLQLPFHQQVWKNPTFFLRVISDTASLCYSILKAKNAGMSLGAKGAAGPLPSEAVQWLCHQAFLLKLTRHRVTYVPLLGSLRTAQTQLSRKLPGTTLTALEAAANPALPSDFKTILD

Row | Compound | IC50 [1] | other results
1 | COc1ccc(-c2ccc(S(=O)(=O)NCCO)cc2)c(S(=O)(=O)NCCO)c1 | > 10 µM | 
2 | CCOC(=O)C1=C(C)N=c2s/c(=C\c3ccc(O)c(OC)c3)c(=O)n2C1c1ccc(OCC)cc1 (configuration not stated) | > 10 µM | 
3 | COc1ccc(C(=O)C2=C(O)C(=O)N(CCO)C2c2ccc(C)cc2)cc1 (configuration not stated) | > 10 µM | 
4 | CCOC(=O)c1cccc(NC(=O)CSc2nnc(-c3cccnc3)n2-c2ccc(OC)cc2)c1 | > 10 µM | 
5 | O=C(C1=C(O)C(=O)N(CCOCCO)C1c1cccc(O)c1)c1cccs1 (configuration not stated) | > 10 µM | 
6 | C/C(=C\C(=O)Nc1ccccc1C(=O)O)c1ccc2ccccc2c1 | 0.091 µM | IC50 (CT26): 42.9 µM; IC50 (HL-60): 47.8 µM; IC50 at 96 h [2]: 206 µM
7 | CCOc1cc(C2NC(=O)N(C)C(C)=C2C(=O)OCC2CCCO2)cc(Cl)c1O (configuration not stated) | > 10 µM | 
8 | O=C(C1=C(O)C(=O)N(Cc2ccco2)C1c1cccc(O)c1)c1ccc2c(c1)OCCO2 (configuration not stated) |  | inhibition [3]: inactive; IC50 (CT26): > 200 µM; Activity [4]: Active; IC50 (HL-60): > 200 µM; IC50 at 96 h [2]: > 1000 µM
9 | CC(=O)c1cccc(/N=c2\scc(-c3ccc(S(=O)(=O)N4CCOCC4)cc3)n2CCO)c1 | > 10 µM | 
10 | CCn1c(CN2NC(C)=CCC2=O)nnc1SCC(=O)Nc1ccc(S(N)(=O)=O)cc1 | > 10 µM | 
11 | CCC(CO)NS(=O)(=O)c1cccc2c(S(=O)(=O)NC(CC)CO)cccc12 (configuration not stated) | > 10 µM | 
12 | CCOc1cc(/C=C2/C(=N)N3N=C(C)SC3=NC2=O)ccc1OCCOc1cccc(OC)c1 | > 10 µM | 
13 | CCOc1ccc(N2C(=O)CC(N(CCc3ccc(S(N)(=O)=O)cc3)C(C)=O)C2=O)cc1 (configuration not stated) | > 10 µM | 
14 | COc1ccc(C2C(C(=O)Nc3ccc(Cl)cc3)=C(C)N=C3N=C(CCCO)NN32)c(OC)c1 (configuration not stated) | > 10 µM | 
15 | COC(=O)C1=C(C)N(CC2CCCO2)C(=O)/C1=C\c1ccc(OCC(=O)NC(C)C)cc1 (configuration not stated) |  | inhibition [3]: inactive; IC50 (CT26): 26.9 µM; Activity [4]: Active; IC50 (HL-60): 156 µM; IC50 at 96 h [2]: > 1000 µM
16 | Cc1ccc2nc(NCCO)c(/C=C3\SC(=S)N(Cc4ccc5c(c4)OCO5)C3=O)c(=O)n2c1 | > 10 µM | 
17 | CCOc1cc(C2NC(=O)NC(C)=C2C(=O)OCc2ccc3c(c2)OCO3)ccc1O (configuration not stated) | > 10 µM | 
18 | CCCc1cc(=O)oc2cc(OCC(=O)Nc3ccc(S(N)(=O)=O)cc3)c(Cl)cc12 | > 10 µM | 
19 | C#CCOc1ccc(/C=C2\SC(Nc3ccc(OCC)cc3)=C(C(=O)OCC)C2=O)cc1OC |  | inhibition [3]: inactive; IC50 (CT26): 46.3 µM; Activity [4]: Active; IC50 (HL-60): > 200 µM; IC50 at 96 h [2]: > 1000 µM
20 | CC(=O)Nc1ccc(/C=C2\C=C(C(O)c3ccc(NC(C)=O)cc3)c3ccccc32)cc1 (configuration not stated) | > 10 µM | 
21 | O=C(CCS(=O)(=O)c1nc(-c2ccccc2)cc(C(F)(F)F)n1)Nc1cccnc1Cl | > 10 µM | 
22 | CCOc1cc(C2C(C#N)=C(N)Oc3n[nH]c(C(C)(C)C)c32)ccc1OCCN1CCOCC1 (configuration not stated) | > 10 µM | 

Source: ChEMBL document CHEMBL5579876, “Small Molecules Blocking the Assembly of TCAB1 and Telomerase Complexes: Lead Discovery and Biological Activity” (ACS Med Chem Lett, 2024)
